Molecular target: T1, human cardiac ion channel proteins hKir3.1/Kir3.4 (Homo sapiens, UniProt P48544+P48549)
T1 construct: expressed in transfected cells
T1 sequence (P48549 1-501): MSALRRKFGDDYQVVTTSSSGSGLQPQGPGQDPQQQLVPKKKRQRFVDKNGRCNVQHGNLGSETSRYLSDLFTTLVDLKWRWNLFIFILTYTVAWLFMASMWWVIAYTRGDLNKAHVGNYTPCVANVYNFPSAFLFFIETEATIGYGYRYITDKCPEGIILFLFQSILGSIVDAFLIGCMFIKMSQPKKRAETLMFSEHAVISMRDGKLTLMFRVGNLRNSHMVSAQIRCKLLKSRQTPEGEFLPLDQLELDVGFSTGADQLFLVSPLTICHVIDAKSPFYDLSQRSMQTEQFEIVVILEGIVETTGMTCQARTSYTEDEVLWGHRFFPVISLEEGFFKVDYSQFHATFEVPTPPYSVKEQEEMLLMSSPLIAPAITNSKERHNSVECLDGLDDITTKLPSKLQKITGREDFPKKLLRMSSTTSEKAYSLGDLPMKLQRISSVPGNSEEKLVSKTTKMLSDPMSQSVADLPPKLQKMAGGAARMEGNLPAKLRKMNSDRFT
T1 sequence (P48544 1-419): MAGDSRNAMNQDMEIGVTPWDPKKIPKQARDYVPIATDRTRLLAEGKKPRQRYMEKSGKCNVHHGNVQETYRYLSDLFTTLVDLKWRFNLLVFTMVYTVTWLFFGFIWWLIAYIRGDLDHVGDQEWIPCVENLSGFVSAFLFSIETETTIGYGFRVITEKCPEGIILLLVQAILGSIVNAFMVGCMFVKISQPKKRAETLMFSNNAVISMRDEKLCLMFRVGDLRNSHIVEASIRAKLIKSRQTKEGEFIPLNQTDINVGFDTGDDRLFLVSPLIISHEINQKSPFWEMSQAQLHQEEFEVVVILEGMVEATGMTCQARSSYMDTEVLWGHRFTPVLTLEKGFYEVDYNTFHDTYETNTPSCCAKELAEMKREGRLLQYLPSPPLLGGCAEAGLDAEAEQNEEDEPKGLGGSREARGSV
Assay: Atomic Absorption Screening (AAS) Rb efflux assay of hKir3.1/Kir3.4 block, carbachol/high K+ stimulated, 10-pt or 7-pt CR
Type: cell-based
Conditions: 7-pt CR (0.037 to 27 μmol/L), AAS Rb efflux, CHO-K1 cells expressing hKir3.1/Kir3.4; mean of >3 replicates; read-out: IKACh IC50 7-pt CR, AAS
How it was run: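 CHO-K1 cells stably co-expressing human Kir3.1/Kir3.4 were Rb-loaded for 3 h at 37° C, preincubated with compound 5 min at RT, then stimulated 10 min with 10 μM carbachol plus 20 mM KCl (final). Supernatant Rb was measured by atomic absorption. Compounds ran at 0.003–67 μmol/L (10-pt) or 0.037–27 μmol/L (7-pt), threefold dilutions; IC50s are means of >4 or >3 replicates respectively.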

`CC(C)[C@@H](CN1CC[C@H](O)C1)N(C)C(=O)c1ccc(F)cc1Cl` [Example 10.1, (3S)-1-((S)-2-(2-Chloro-4-fluoro-N-methylbenzamido)-3-methylbutyl)-3-hydroxypyrrolidinium 2,3-dihydroxysuccinate] was tested, and the IC50 was 3.7 µM.

Same assay, conditions: 10-pt CR (0.003 to 67 μmol/L), AAS Rb efflux, CHO-K1 cells expressing hKir3.1/Kir3.4; mean of >4 replicates; read-out: IKACh IC50 10-pt CR, AAS

First: CN(C(=O)c1ccc(F)c(Cl)c1)[C@H](CN1CC(O)(C2CC2)C1)C1CC1 [Example 9.2, (S)-3-Chloro-N-(1-cyclopropyl-2-(3-cyclopropyl-3-hydroxyazetidin-1-yl)ethyl)-4-fluoro-N-methylbenzamide]
Second: CN(C(=O)c1ccc(F)c(F)c1)[C@H](CN1CC(O)(C2CC2)C1)C1CC1 [Example 9.3, (S)-N-(1-Cyclopropyl-2-(3-cyclopropyl-3-hydroxyazetidin-1-yl)ethyl)-3,4-difluoro-N-methylbenzamide]
The IC50 of the first is 2.6-fold lower: 1.2 µM for the first, 3.1 µM for the second. The first is the more potent here.

Going from `CN(C(=O)c1ccc(C#N)cc1)[C@H](CN1CC(O)(C2CC2)C1)C1CC1` [Example 9.4, (S)-4-Cyano-N-(1-cyclopropyl-2-(3-cyclopropyl-3-hydroxyazetidin-1-yl)ethyl)-N-methylbenzamide] to `Cc1ccc(C(=O)N(C)[C@H](CN2CC(O)(C3CC3)C2)C2CC2)cc1C` [Example 9.5, (S)-N-(1-Cyclopropyl-2-(3-cyclopropyl-3-hydroxyazetidin-1-yl)ethyl)-N,3,4-trimethylbenzamide], the IC50 falls from 14 µM to 1.3 µM (11-fold). The second is the more potent here.

Going from `CC(C)[C@@H](CN1CC(C)(O)C1)N(C)C(=O)c1ccc(Br)cc1` [Example 9.6, (S)-4-Bromo-N-(1-(3-hydroxy-3-methylazetidin-1-yl)-3-methyl-butan-2-yl)-N-methylbenzamide] to `CC(C)[C@@H](CN1CC(C)(O)C1)N(C)C(=O)c1ccc(Cl)cc1` [Example 9.7, (S)-4-Chloro-N-(1-(3-hydroxy-3-methylazetidin-1-yl)-3-methyl-butan-2-yl)-N-methylbenzamide], the IC50 rises from 2.8 µM to 8.6 µM (3.1-fold).

Going from `CC(C)[C@@H](CN1CC(C)(O)C1)N(C)C(=O)c1ccc(F)c(C(F)(F)F)c1` [Example 9.8, (S)-4-Fluoro-N-(1-(3-hydroxy-3-methylazetidin-1-yl)-3-methyl-butan-2-yl)-N-methyl-3-(trifluoromethyl)benzamide] to `Cc1cc(C(=O)N(C)[C@H](CCN2CCCC2)C(C)C)ccc1F` [Example 13.4, (R)-4-Fluoro-N,3-dimethyl-N-(4-methyl-1-(pyrrolidin-1-yl)pentan-3-yl)benzamide], the IC50 rises from 5.3 µM to 19 µM (3.6-fold). The first is the more potent here.

`CN(C(=O)c1ccc(F)c(F)c1)[C@H](CN1CC(O)C1)C1CC1` [Example 9.9, (S)-N-(1-Cyclopropyl-2-(3-hydroxyazetidin-1-yl)ethyl)-3,4-difluoro-N-methylbenzamide] and `CN(C(=O)c1ccc(F)c(F)c1)[C@H](CN1CCC1)C1CC1` [Example 9.11, (S)-N-(2-(Azetidin-1-yl)-1-cyclopropylethyl)-3,4-difluoro-N-methylbenzamide] are within 1.5-fold of each other in IC50: 11 µM for the first, 12 µM for the second.

Compared with `Cc1ccc(C(=O)N(C)[C@H](CN2CCC2)C2CC2)cc1C` [Example 9.10, N-[(1S)-2-(azetidin-1-yl)-1-cyclopropylethyl]-N,3,4-trimethylbenzamide], `Cc1ccc(C(=O)N(C)[C@H](CN2CCCC2)C2CC2)cc1C` [Example 13.2, (S)-N-(1-Cyclopropyl-2-(pyrrolidin-1-yl)ethyl)-N,3,4-trimethyl-benzamide] is 1.9-fold higher in IC50: 2.1 µM for the first, 3.9 µM for the second.

First: CC(C)[C@@H](CN1CC[C@H](O)C1)N(C)C(=O)c1ccc(F)cc1Cl [Example 10.1, (3S)-1-((S)-2-(2-Chloro-4-fluoro-N-methylbenzamido)-3-methylbutyl)-3-hydroxypyrrolidinium 2,3-dihydroxysuccinate]
Second: CC(C)[C@@H](CCN1CCCC1)N(C)C(=O)c1cccc(Cl)c1 [Example 13.3, (R)-3-Chloro-N-methyl-N-(4-methyl-1-(pyrrolidin-1-yl)pentan-3-yl)benzamide]
The IC50 of the first is 3.1-fold lower: 6.1 µM for the first, 19 µM for the second.

Compared with `CCN(C(=O)c1ccc(Cl)cc1)[C@H](CN1CCC1)C(C)C` [Example 11, (S)—N-(1-(Azetidin-1-yl)-3-methylbutan-2-yl)-4-chloro-N-ethylbenzamide], `CN(C(=O)c1ccc(F)c(Cl)c1)[C@H](CN1CCCC1)C1CC1` [Example 13.1, (S)-3-Chloro-N-(1-cyclopropyl-2-(pyrrolidin-1-yl)ethyl)-4-fluoro-N-methylbenzamide] is 2.2-fold lower in IC50: 5.6 µM for the first, 2.5 µM for the second. The second is the more potent here.
